Experimental data taken from ChEMBL document CHEMBL4610060, “Orally bioavailable amine-linked macrocyclic inhibitors of factor XIa” (Bioorg Med Chem Lett, 2020).

What was measured:
[1] = Metabolic stability in human liver microsomes assessed as half life; type: ADME, Microsome
[2] = system: Plasma; experiment: Anticoagulant activity in human plasma assessed as EC1.5 of activated partial thromboplastin time by coagulometric analysis; type: functional
[3] = molecular target: Coagulation factor XI (Homo sapiens, UniProt P03951); experiment: Inhibition of recombinant human activated coagulation factor XI using pyro-Glu-Pro-Arg-pNA as substrate by spectrophotometry
Coagulation factor XI, sequence (P03951 19-387 limits assumed): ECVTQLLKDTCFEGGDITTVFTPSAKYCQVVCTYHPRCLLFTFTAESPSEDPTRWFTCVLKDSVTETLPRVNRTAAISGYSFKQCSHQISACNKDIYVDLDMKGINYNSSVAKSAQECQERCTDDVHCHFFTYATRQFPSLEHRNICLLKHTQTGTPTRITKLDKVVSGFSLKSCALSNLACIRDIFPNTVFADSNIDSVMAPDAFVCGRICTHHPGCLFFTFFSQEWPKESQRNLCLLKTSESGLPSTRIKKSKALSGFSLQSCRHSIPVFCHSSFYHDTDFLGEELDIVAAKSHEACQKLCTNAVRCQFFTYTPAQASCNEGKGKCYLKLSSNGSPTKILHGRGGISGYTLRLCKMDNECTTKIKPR
Coagulation factor XI, sequence (P03951 388-625 limits assumed): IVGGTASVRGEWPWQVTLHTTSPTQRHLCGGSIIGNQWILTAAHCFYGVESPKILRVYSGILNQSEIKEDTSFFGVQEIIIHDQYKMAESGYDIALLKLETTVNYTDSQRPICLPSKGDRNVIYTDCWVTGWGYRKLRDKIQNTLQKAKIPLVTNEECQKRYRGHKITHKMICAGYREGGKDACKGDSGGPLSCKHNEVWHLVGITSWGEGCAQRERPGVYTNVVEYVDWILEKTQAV

[4] = Clearance in Sprague-Dawley rat at 0.31 mg/kg, iv or 0.61 mg/kg, po measured upto 24 hrs by LC-MS/MS analysis; type: ADME, organism-based; conditions: in vivo
[5] = Half life in Sprague-Dawley rat at 0.31 mg/kg, iv or 0.61 mg/kg, po measured upto 24 hrs by LC-MS/MS analysis; type: ADME, organism-based; conditions: in vivo
[6] = Permeability across basolateral to apical side in human Caco2 cells; type: ADME, cell-based; conditions: Caco-2, read-out: permeability
[7] = Oral bioavailability in Sprague-Dawley rat at 0.61 mg/kg measured upto 24 hrs by LC-MS/MS analysis; type: ADME, organism-based; conditions: in vivo
[8] = Permeability across apical to basolateral side in human Caco2 cells; type: ADME, cell-based; conditions: Caco-2, read-out: permeability
[9] = AUC in Sprague-Dawley rat at 0.61 mg/kg, po measured upto 24 hrs by LC-MS/MS analysis; type: ADME, organism-based; parameters: time < 24 hr, dose 0.61 mg/kg, route oral; conditions: in vivo
[10] = Volume of distribution at steady state in Sprague-Dawley rat at 0.31 mg/kg, iv or 0.61 mg/kg, po measured upto 24 hrs by LC-MS/MS analysis; type: ADME, organism-based; conditions: in vivo, read-out: Vdss
[11] = Half life in Sprague-Dawley rat at 0.53 mg/kg, iv or 1.06 mg/kg, po measured upto 24 hrs by LC-MS/MS analysis; type: ADME, organism-based; conditions: in vivo
[12] = Metabolic stability in rat liver microsomes assessed as half life; type: ADME, Microsome
[13] = Oral bioavailability in Sprague-Dawley rat at 1.06 mg/kg measured upto 24 hrs by LC-MS/MS analysis; type: ADME, organism-based; conditions: in vivo
[14] = Clearance in Sprague-Dawley rat at 0.53 mg/kg, iv or 1.06 mg/kg, po measured upto 24 hrs by LC-MS/MS analysis; type: ADME, organism-based; conditions: in vivo
[15] = AUC in Sprague-Dawley rat at 1.06 mg/kg, po measured upto 24 hrs by LC-MS/MS analysis; type: ADME, organism-based; parameters: time < 24 hr, dose 1.06 mg/kg, route oral; conditions: in vivo
[16] = Protein binding in rat assessed as unbound fraction; type: ADME
[17] = Volume of distribution at steady state in Sprague-Dawley rat at 0.53 mg/kg, iv or 1.06 mg/kg, po measured upto 24 hrs by LC-MS/MS analysis; type: ADME, organism-based; conditions: in vivo, read-out: Vdss
[18] = Half life in Sprague-Dawley rat at 0.72 mg/kg, iv or 1.44 mg/kg, po measured upto 24 hrs by LC-MS/MS analysis; type: ADME, organism-based; conditions: in vivo
[19] = Clearance in Sprague-Dawley rat at 0.72 mg/kg, iv or 1.44 mg/kg, po measured upto 24 hrs by LC-MS/MS analysis; type: ADME, organism-based; conditions: in vivo
[20] = AUC in Sprague-Dawley rat at 1.44 mg/kg, po measured upto 24 hrs by LC-MS/MS analysis; type: ADME, organism-based; parameters: time < 24 hr, dose 1.44 mg/kg, route oral; conditions: in vivo
[21] = Oral bioavailability in Sprague-Dawley rat at 1.44 mg/kg measured upto 24 hrs by LC-MS/MS analysis; type: ADME, organism-based; conditions: in vivo
[22] = Volume of distribution at steady state in Sprague-Dawley rat at 0.72 mg/kg, iv or 1.44 mg/kg, po measured upto 24 hrs by LC-MS/MS analysis; type: ADME, organism-based; conditions: in vivo, read-out: Vdss
[23] = Half life in Sprague-Dawley rat at 0.50 mg/kg, iv or 1.0 mg/kg, po measured upto 24 hrs by LC-MS/MS analysis; type: ADME, organism-based; conditions: in vivo
[24] = AUC in Sprague-Dawley rat at 1.0 mg/kg, po measured upto 24 hrs by LC-MS/MS analysis; type: ADME, organism-based; parameters: dose 1 mg/kg, time < 24 hr, route oral; conditions: in vivo
[25] = Oral bioavailability in Sprague-Dawley rat at 1.0 mg/kg measured upto 24 hrs by LC-MS/MS analysis; type: ADME, organism-based; conditions: in vivo
[26] = Volume of distribution at steady state in Sprague-Dawley rat at 0.50 mg/kg, iv or 1.0 mg/kg, po measured upto 24 hrs by LC-MS/MS analysis; type: ADME, organism-based; conditions: in vivo, 0.5 mg/kg, read-out: Vdss
[27] = Clearance in Sprague-Dawley rat at 0.50 mg/kg, iv or 1.0 mg/kg, po measured upto 24 hrs by LC-MS/MS analysis; type: ADME, organism-based; conditions: in vivo, 0.5 mg/kg
[28] = Oral bioavailability in Sprague-Dawley rat at 2.27 mg/kg measured upto 24 hrs by LC-MS/MS analysis; type: ADME, organism-based; conditions: in vivo
[29] = AUC in Sprague-Dawley rat at 2.27 mg/kg, po measured upto 24 hrs by LC-MS/MS analysis; type: ADME, organism-based; parameters: time < 24 hr, dose 2.27 mg/kg, route oral; conditions: in vivo
[30] = Volume of distribution at steady state in Sprague-Dawley rat at 1.13 mg/kg, iv or 2.27 mg/kg, po measured upto 24 hrs by LC-MS/MS analysis; type: ADME, organism-based; conditions: in vivo, read-out: Vdss
[31] = Half life in Sprague-Dawley rat at 1.13 mg/kg, iv or 2.27 mg/kg, po measured upto 24 hrs by LC-MS/MS analysis; type: ADME, organism-based; conditions: in vivo
[32] = Clearance in Sprague-Dawley rat at 1.13 mg/kg, iv or 2.27 mg/kg, po measured upto 24 hrs by LC-MS/MS analysis; type: ADME, organism-based; conditions: in vivo

| SMILES | half-life [1] | EC1.5 [2] | Ki [3] | other results |
| --- | --- | --- | --- | --- |
| COC(=O)Nc1ccc2c(c1)N[C@@H](C)CCCC[C@H](NC(=O)/C=C/c1cc(Cl)ccc1-n1cnnn1)c1nc-2c[nH]1 | 7 min | 5.2 µM | 8.3 nM | – |
| O=C(/C=C/c1cc(Cl)ccc1-n1cnnn1)N[C@H]1CCCCC(=O)Nc2ccccc2-c2c[nH]c1n2 | 6 min | >40 µM | 48 nM | clearance [4]: 53 mL/min/kg; half-life [5]: 30 min; Papp B→A [6]: 20.5 ×10⁻⁶ cm/s; bioavailability [7]: < 1%; Papp A→B [8]: < 1.5 ×10⁻⁶ cm/s; AUC at 24 h [9]: 0.001 µM·h; Vd [10]: 1.2 L/kg |
| COC(=O)C[C@H]1CCCC[C@H](NC(=O)/C=C/c2cc(Cl)ccc2-n2cnnn2)c2nc(c[nH]2)-c2ccc(NC(=O)OC)cc2N1 | 4 min | 1.1 µM | 2 nM | – |
| O=C(/C=C/c1cc(Cl)ccc1-n1cnnn1)N[C@H]1C/C=C/CCC(=O)Nc2ccc(C(=O)O)cc2-c2c[nH]c1n2 | 94 min | 1.7 µM | 3.6 nM | – |
| COC(=O)Nc1ccc2c(c1)C[C@@H](C(=O)OC)CCCC[C@H](NC(=O)/C=C/c1cc(Cl)ccc1-n1cnnn1)c1nc-2c[nH]1 | 8 min | 25 µM | 24 nM | – |
| COC(=O)Nc1ccc2c(c1)N[C@@H](C(=O)OC)CCCC[C@H](NC(=O)/C=C/c1cc(Cl)ccc1-n1cnnn1)c1nc-2c[nH]1 | 10 min | 0.55 µM | 0.46 nM | half-life [11]: 108 min; half-life [12]: 48 min; bioavailability [13]: 8%; Papp B→A [6]: 10.3 ×10⁻⁶ cm/s; clearance [14]: 3 mL/min/kg; AUC at 24 h [15]: 0.487 µM·h; Papp A→B [8]: < 1.5 ×10⁻⁶ cm/s; fraction unbound [16]: < 0.002; Vd [17]: 0.3 L/kg |
| COC(=O)Nc1ccc2c(c1)N[C@@H](C(F)(F)F)CCCC[C@H](NC(=O)/C=C/c1cc(Cl)ccc1-n1cnnn1)c1nc-2c[nH]1 | 54 min | 2.6 µM | 1.1 nM | half-life [12]: 14 min; half-life [18]: 84 min; clearance [19]: 12 mL/min/kg; AUC at 24 h [20]: 0.307 µM·h; bioavailability [21]: 9%; fraction unbound [16]: 0.002; Vd [22]: 0.4 L/kg |
| O=C(/C=C/c1cc(Cl)ccc1-n1cnnn1)N[C@H]1C/C=C/CCC(=O)Nc2ccccc2-c2c[nH]c1n2 | 3 min | 2.9 µM | 5.1 nM | – |
| COC(=O)Nc1ccc2c(c1)N[C@@H](C(F)F)CCCC[C@H](NC(=O)/C=C/c1cc(Cl)ccc1-n1cnnn1)c1nc-2c[nH]1 | 25 min | 2 µM | 1.3 nM | – |
| COC(=O)Nc1ccc2c(c1)NC(=O)CC/C=C/C[C@H](NC(=O)/C=C/c1cc(Cl)ccc1-n1cnnn1)c1nc-2c[nH]1 | – | 0.27 µM | – | Papp A→B [8]: < 1.5 ×10⁻⁶ cm/s |
| COC(=O)Nc1ccc2c(c1)NCCCCC[C@H](NC(=O)/C=C/c1cc(Cl)ccc1-n1cnnn1)c1nc-2c[nH]1 | 6 min | 6.2 µM | 16 nM | – |
| O=C(/C=C/c1cc(Cl)ccc1-n1cnnn1)N[C@H]1C/C=C/CCC(=O)Nc2ccc(F)cc2-c2c[nH]c1n2 | 2 min | 2.5 µM | 6 nM | – |
| COC(=O)Nc1ccc2c(c1)N[C@@H](C(=O)O)CCCC[C@H](NC(=O)/C=C/c1cc(Cl)ccc1-n1cnnn1)c1cc-2ccn1 | 99 min | 7.1 µM | 2.6 nM | – |
| COC(=O)Nc1ccc2c(c1)N[C@@H](C(F)(F)F)CCCC[C@H](NC(=O)/C=C/c1cc(Cl)ccc1-n1cnnn1)c1cc-2ccn1 | 95 min | 13 µM | 16 nM | – |
| COC(=O)Nc1ccc2c(c1)N[C@@H](CO)CCCC[C@H](NC(=O)/C=C/c1cc(Cl)ccc1-n1cnnn1)c1nc-2c[nH]1 | 10 min | 0.54 µM | 0.61 nM | – |
| O=C(/C=C/c1cc(Cl)ccc1-n1cnnn1)N[C@H]1C/C=C/CCC(=O)Nc2cc(F)ccc2-c2c[nH]c1n2 | 3 min | 16 µM | 12 nM | – |
| COC(=O)Nc1ccc2c(c1)N[C@@H](C(F)(F)F)CC/C=C/C[C@H](NC(=O)/C=C/c1cc(Cl)ccc1-n1cnnn1)c1nc-2c[nH]1 | 29 min | >40 µM | 53 nM | – |
| CCOC(=O)[C@H]1CCCC[C@H](NC(=O)/C=C/c2cc(Cl)ccc2-n2cnnn2)c2nc(c[nH]2)-c2ccc(NC(=O)OC)cc2N1 | 7 min | 0.86 µM | 0.22 nM | half-life [12]: 34 min; half-life [23]: 90 min; Papp B→A [6]: 13.3 ×10⁻⁶ cm/s; AUC at 24 h [24]: 0.478 µM·h; bioavailability [25]: 7%; Vd [26]: 0.2 L/kg; Papp A→B [8]: < 1.5 ×10⁻⁶ cm/s; fraction unbound [16]: < 0.002; clearance [27]: 2.8 mL/min/kg |
| COC(=O)Nc1ccc2c(c1)N[C@H](C(F)(F)F)CCCC[C@H](NC(=O)/C=C/c1cc(Cl)ccc1-n1cnnn1)c1nc-2c[nH]1 | – | – | 370 nM | – |
| CCOC(=O)[C@H]1CCCC[C@H](NC(=O)/C=C/c2cc(Cl)ccc2-n2cnnn2)c2cc(ccn2)-c2ccc(NC(=O)OC)cc2N1 | 30 min | 6.1 µM | 2.5 nM | half-life [12]: 59 min; half-life [23]: 216 min; Papp B→A [6]: 10.1 ×10⁻⁶ cm/s; AUC at 24 h [24]: 1.29 µM·h; bioavailability [25]: 41%; Vd [26]: 1.3 L/kg; Papp A→B [8]: < 1.5 ×10⁻⁶ cm/s; fraction unbound [16]: 0.008; clearance [27]: 4.9 mL/min/kg |
| COC(=O)Nc1ccc2c(c1)N[C@@H](C(=O)N(C)C)CCCC[C@H](NC(=O)/C=C/c1cc(Cl)ccc1-n1cnnn1)c1nc-2c[nH]1 | 14 min | 0.36 µM | 0.31 nM | – |
| COC(=O)Nc1ccc2c(c1)NC(=O)CCCC[C@H](NC(=O)/C=C/c1cc(Cl)ccc1-n1cnnn1)c1nc-2c[nH]1 | 90 min | 0.3 µM | – | bioavailability [28]: < 1%; AUC at 24 h [29]: 0.024 µM·h; half-life [12]: 76 min; Vd [30]: 0.3 L/kg; Papp B→A [6]: 6.7 ×10⁻⁶ cm/s; half-life [31]: 60 min; clearance [32]: 10 mL/min/kg; Papp A→B [8]: < 1.5 ×10⁻⁶ cm/s |
| COC(=O)c1ccc2c(c1)-c1c[nH]c(n1)[C@@H](NC(=O)/C=C/c1cc(Cl)ccc1-n1cnnn1)C/C=C/CCC(=O)N2 | 6 min | – | 245 nM | – |
